Laboratory results from US20260284082A1, “TARGETING THE PANX1-P2Y2R-TRPV4 PATHWAY TO TREAT LUNG ISCHEMIA-REPERFUSION INJURY” (UNIVERSITY OF VIRGINIA PATENT FOUNDATION, priority 2023, published 2026).

Tests used:
[1] = human, in vivo; cited from earlier work
[2] = system: eATP efflux through Panx1 channels; test: Luciferase assay for eATP release from small PAs; type: cell-based, mouse; conditions: GSK101 10 nM
Experimental: Luciferase assay for total ATP release: Small Pas were cut open and pinned down en face on a Sylgard block. Pas were then placed in black, opaque 96-well plates and incubated in HEPES-PSS for 10 minutes at 37° C., followed by incubation with the ectonucleotidase inhibitor ARL 67156 (300 μmol/L; Tocris Bioscience, Minneapolis, MN) for 30 minutes at 37° C. A 50-μL aliquot of each sample was transferred to another black, opaque 96-well plate, and ATP was measured using an ATP Bioluminescence HSII kit (Roche Applied Science, Penzberg, Germany).^5 Briefly, 50 μL of the luciferase reagent, luciferin, provided in the assay kit (Roche Applied Science), was added to each well and. following a 5-second orbital mix, luminescence was recorded using a luminometer (FluoStar Omega). ATP concentrations were calculated by reference to an ATP standard curve.

[3] = system: pulmonary endothelium of small PAs; test: Baseline endothelial Ca2+ signaling in en face small PAs after lung IR (Fluo-4 confocal imaging); type: cell-based, mice; conditions: apyrase 10 U/mL; small PAs after lung IR
Experimental: (§1) Murine lung IR model: A well-established left lung IRI model involving temporary in vivo ligation of the left hilum (pulmonary artery, vein, and airway) was used.^6 Briefly, mice were anesthetized with inhaled isoflurane, intubated, ventilated with room air at 150 strokes/min with a tidal volume of […] (Harvard Apparatus Co, South Natick, MA), and heparinized (20 U/kg: Hospira Inc, Lake Forest, IL). An anterolateral thoracotomy was performed through the fourth intercostal space to expose the left hilum. A 6-0 Prolene suture (Ethicon. Somerville, NJ) was passed around the left hilum, and the suture ends were passed through a 5-mm length of polyethylene (PE)-50 tubing. A surgical clip was used to fashion a Rummel tourniquet to provide temporary occlusion of the left hilar structures. The thoracotomy was closed, anesthesia was weaned, and analgesia was administered (intraperitoneal buprenorphine. 0.2 mg/kg). Animals recovered in their cages during the 1-hour ischemic period, after which they were anesthetized again and intubated, the Rummel tourniquet was removed, and the thoracotomy was closed. Animals were again extubated, recovered in their cage, and monitored during the 2-hour reperfusion period. Sham animals underwent the same surgical procedure except that application of the Rummel tourniquet to induce ischemia was omitted; thus, these animals were perfused for a total of 3 hours.
Ca^2+ imaging in Pas: Ca^2+ imaging in small Pas was performed as previously described.8 Fourth-order, small (~50 μm diameter) Pas (see FIG. 1B) were dissected from left lungs in cold HEPES-buffered physiological salt solution (HEPES-PSS; 10 mM HEPES, 134 mM NaCl, 6 mM KCl, 1 mM MgCl2 hexahydrate, 2 mM CaCl2) dihydrate, and 7 mM dextrose; pH adjusted to 7.4 using 1 M NaOH). […] Fluo-4 was excited using a 488-nm solid-state laser, and emitted fluorescence was captured using a 525/36-nm band-pass filter. […] Baseline Ca^2+ signaling activity was recorded in the absence of CPA. […]

TRPV4EC channels = test: TRPV4 sparklet activity in endothelium of small PAs after lung IR (in presence of CPA); type: cell-based, mice; conditions: apyrase 10 U/mL; small PAs after lung IR
Experimental: as §1, with “Sham animals underwent the same surgical procedure except that application of the Rummel tourniquet to induce ischemia was omitted; thus, these animals were perfused for a total of 3 hours.” left out
Ca^2+ imaging in Pas: Ca^2+ imaging in small Pas was performed as previously described.8 Fourth-order, small (~50 μm diameter) Pas (see FIG. 1B) were dissected from left lungs in cold HEPES-buffered physiological salt solution (HEPES-PSS; 10 mM HEPES, 134 mM NaCl, 6 mM KCl, 1 mM MgCl2 hexahydrate, 2 mM CaCl2) dihydrate, and 7 mM dextrose; pH adjusted to 7.4 using 1 M NaOH). […] Fluo-4 was excited using a 488-nm solid-state laser, and emitted fluorescence was captured using a 525/36-nm band-pass filter. […] Baseline Ca^2+ signaling activity was recorded in the absence of CPA.
TRPV4 sparklets were assessed as increases in fluorescence relative to baseline fluorescence, obtained by averaging 10 quiescent images prior to stimulation. […]

TRPV4 channels = conditions: CPA 20 μM as used; cited from earlier work

## CC(C)(O)c1cnc(N2C[C@@]3(CCC[C@](C)(Cn4cnc5ccc(C#N)cc54)C3)OC2=O)cn1 [GSK2798745]
[1]
  tolerability: well tolerated

## CC(C)C[C@H](NC(=O)c1cc2ccccc2s1)C(=O)N1CCN(C(=O)[C@H](CO)NS(=O)(=O)c2ccc(Cl)cc2Cl)CC1 [GSK101, GSK1016790A]
[2]
  eATP efflux through Panx1 channels (eATP release from small PAs): increased

## apyrase
[3]
  IR-induced increase in baseline Ca2+ signaling activity: abolished
TRPV4EC channels
  IR-induced increase in TRPV4EC channel activity: abolished

## CC(=O)C1=C(O)[C@@H]2[C@H]3c4c[nH]c5cccc(c45)C[C@H]3C(C)(C)N2C1=O [CPA, Cyclopiazonic acid]
TRPV4 channels
  effect of CPA by itself on activity of TRPV4 channels: does not alter
